Reference: article PMC11362066, “Fecal elimination of fluralaner in different carnivore species after oral administration” (Frontiers in Veterinary Science, 2024)
Converted amounts (≈) assume the structure as drawn. Read-outs that look alike come from different tables or passages of the source.

Columns and labels:
[1] = Fecal elimination of fluralaner after oral administration, Lion; format: in vivo, Panthera leo
Method: (§1) Based on the species present at the Paris Zoo, the animals selected to be part of the study are described in Table 1.
(§2) Each individual received 1–3 tablets of fluralaner (Bravecto®, formulations from 112.5 mg to 1,400 mg per tablet), based on the dose determined (Table 2) and the actual BW of the animal on day 0 (D0). Tablets were administered with the food. Tablets were not divided, according to the summary of product characteristics and the dose administered was adjusted as closely as possible to the theoretical dose calculated. The recommended bracket doses (25–56 mg/kg in a 20-kg dog) were used as a guideline (adjusted to the body weight of the animals) to ensure that the actual dose administered would remain in the acceptable margin. For instance, for the Iberian Wolf: using the dose range 25–56 mg/kg gave a D-reference of [500–1,120] mg, thus c = D-ref/P-ref = [0.76–1.69], i.e., D-target = [763–1,698] mg, resulting in a reference range of [21.9–48.6] mg.kg^−1. The actual doses administered were between 28 and 30 mg.kg^−1. This was checked for all species.
(§3) Feces were sampled on the floor, in priority on concrete ground in indoor facilities when animals were isolated. Fecal sampling was performed by keepers with gloves, transferred to sterile vials, then saved at −80°C until transfer to the lab.
(§4) For feces analysis, well-homogenized samples were weighed and dried at 40°C overnight to eliminate water. 200 mg of the dried sample were weighed, 80 μL of IS solution (0.5 μg/mL solution), 0.52 mL of water, 200 mg QuEChERS salts and 1 mL of acetonitrile were added in a 5 mL plastic centrifuge tube. The sample was then mixed well by vortexing for 2 min and then centrifuged at 12,000 rpm for 5 min.
(§5) The upper clear layer solutions were transferred to auto-sampler vials and placed in the auto-sampler at 10°C for LC–MS/MS analysis. All results are reported in μg.kg^−1 dry weight (dw).
(§6) All pharmacokinetic data were computed using a non-linear model and “PK solver” in Microsoft-excel®. This approach has been used by Kilp et al. ([21]) and considered satisfactory by comparison with a standard PK software such as WinNonLIn®.
(§7) Only Lion and Mountain lion data (3 individuals+negative control for each species) are presented in Figure 2 as mean ± SD of the fecal concentration of fluralaner vs. time post administration. When data were LOD < Data<LOQ, an average value of 4 has been used (for graphical and PK analysis purposes). When concentrations were < LOD, ½ LOD value was used for the same purposes.

[2] = Fecal elimination of fluralaner after oral administration, Mountain lion; format: in vivo, Puma concolor
Method: as §1, §2, §3, §4, §5, §6, §7

[3] = Fecal elimination of fluralaner after oral administration, Fossa; format: in vivo, Cryptoprocta ferox; conditions: Fossa n = 1
Method: as §1, §2, §3, §4, §5, §6, §7

[4] = Fecal elimination of fluralaner after oral administration, Jaguar; format: in vivo, Panthera onca; conditions: Jaguar n = 1
Method: as §1, §2, §3, §4, §5, §6, §7

[5] = Fecal elimination of fluralaner after oral administration, Suricate; format: in vivo, Suricatta suricatta; conditions: feces, Suricate n = 1
Method: as §1, §2, §3, §4, §5, §6, §7

[6] = Fecal elimination of fluralaner after oral administration, Iberian wolf; format: in vivo, Canis lupus; conditions: Iberian wolf n = 1
Method: as §1, §2, §3, §4, §5, §6, §7

[7] = Fecal elimination of fluralaner after oral administration, European otter; format: in vivo, Lutra lutra; conditions: European otter n = 1
Method: as §1, §2, §3, §4, §5, §6, §7

[8] = Fecal elimination of fluralaner after oral administration, South American coati; format: in vivo, Nasua nasua; conditions: South American coati n = 1
Method: as §1, §2, §3, §4, §5, §6, §7

[9] = Oral Bravecto in zoo carnivores, all treated animals (tolerance, fecal residues); format: in vivo
Method: as §1, §2, §3

[10] = cited from earlier work
[11] = set-up: method as in PMID 33480547; conditions: black bears, orally at 25 mg.kg^−1; cited from earlier work
[12] = set-up: method as in PMID 33407820; conditions: wombats, pour on, doses of 25 or 85 mg.kg^−1; cited from earlier work
[13] = set-up: method as in PMID 28103942; conditions: 221 dogs treated; cited from earlier work
Daphnia magna = system: Daphnia magna; set-up: method as in ref 10 = [10]; 10. CVMP ( 2017 ) CVMP assessment report for EXZOLT (EM EA/V/C/004344/0000), EMA/377159/2017, Available at: https://www.ema.europa.eu/en/documents/assessment-report/exzolt-epar-public-assessment-repor; conditions: cited from earlier work
honey bees = system: honey bees; set-up: method as in ref 10 = [10]; 10. CVMP ( 2017 ) CVMP assessment report for EXZOLT (EM EA/V/C/004344/0000), EMA/377159/2017, Available at: https://www.ema.europa.eu/en/documents/assessment-report/exzolt-epar-public-assessment-repor; conditions: cited from earlier work
[14] = cited from earlier work; remark: listed apart in the source
sarcoptic mange = system: sarcoptic mange; set-up: method as in PMID 30895701; conditions: Raccoon dogs, one oral dose; cited from earlier work
dog and cat fleas = conditions: cited from earlier work
[15] = set-up: method as in PMID 33733534; conditions: cited from earlier work
[16] = cited from earlier work; remark: listed apart in the source
[17] = set-up: method as in PMID 36265636; conditions: treated dogs; cited from earlier work
[18] = set-up: method as in ref 27 = [27]; 27. VSDB Veterinary substances DataBase consulted on June 1st, ( 2022 ) Available at: http://sitem.herts.ac.uk/aeru/vsdb/index.htm; conditions: VSDB; cited from earlier work
[19] = fecal elimination, Lion n = 3, mean ± SD, oral 16.0–24.1 mg.kg^−1
[20] = feces, Lion n = 3, mean ± SD, oral 16.0–24.1 mg.kg^−1
[21] = fecal elimination, Mountain lion n = 3, mean ± SD, oral 20.8–25.0 mg.kg^−1
[22] = feces, Mountain lion n = 3, mean ± SD, oral 20.8–25.0 mg.kg^−1
[23] = fecal elimination, oral 26.3 mg.kg^−1
[24] = fecal elimination, oral 34.5 mg.kg^−1
[25] = fecal elimination, oral 28.6 mg.kg^−1
[26] = fecal elimination, oral 36.8 mg.kg^−1
[27] = fecal elimination, oral 52.1 mg.kg^−1

Cc1cc(C2=NOC(c3cc(Cl)cc(Cl)c3)(C(F)(F)F)C2)ccc1C(=O)NCC(=O)NCC(F)(F)F (stereo not shown) [fluralaner, Fluralaner]
MRT [1, 19]: 190 ± 24 h | t1/2 [1, 19]: 288 ± 24 h | Cmax ([1]; feces, Lion n = 3, mean ± SD, Bravecto tablets oral with food, 16.0–24.1 mg.kg^−1, rough estimate): 44,880 ± 28,616 μg.kg-^1 dry weight | AUC (D0-D112) [1, 20]: 232,796±95,614 d* μg.kg-^1 dry weight | AUC(0-infini) [1, 20]: 234,203±95,339 d* μg.kg-^1 dry weight | Last detection day ([1]; feces, Lion n = 3, oral 16.0–24.1 mg.kg^−1): 89 days | tmax ([1]; feces, Lion n = 3, oral 16.0–24.1 mg.kg^−1, rough estimate): 24 h | MRT [2, 21]: 72 ± 24 h | t1/2 [2, 21]: 140 ± 24 h | Cmax ([2]; feces, Mountain lion n = 3, mean ± SD, Bravecto tablets oral with food, 20.8–25.0 mg.kg^−1, rough estimate): 12,909 ± 4,954 μg.kg-^1 dry weight | AUC (D0-D112) [2, 22]: 54,158±19,755 d* μg.kg-^1 dry weight | AUC(0-infini) [2, 22]: 54,786±19,755 d* μg.kg-^1 dry weight | Last detection day ([2]; feces, Mountain lion n = 3, oral 20.8–25.0 mg.kg^−1): 49 days | tmax ([2]; feces, Mountain lion n = 3, oral 20.8–25.0 mg.kg^−1, rough estimate): 24 h | MRT [3, 23]: 24 h | t1/2 [3, 23]: 72 h | Cmax ([3]; feces, Bravecto tablet oral with food, 26.3 mg.kg^−1, rough estimate, residues in control animal in same cage): 370,295 μg.kg-^1 dry weight | AUC (D0-D112) ([3]; feces, oral 26.3 mg.kg^−1): 1,373,277 d* μg.kg-^1 dry weight | AUC(0-infini) ([3]; feces, oral 26.3 mg.kg^−1): 1,373,579 d* μg.kg-^1 dry weight | Last detection day ([3]; feces, oral 26.3 mg.kg^−1): 35 days | tmax ([3]; feces, oral 26.3 mg.kg^−1, rough estimate): 24 h | MRT [4, 24]: 360 h | t1/2 [4, 24]: 190 h | Cmax ([4]; feces, Bravecto tablets oral with food, 34.5 mg.kg^−1, rough estimate): 16,089 μg.kg-^1 dry weight | AUC (D0-D112) ([4]; feces, oral 34.5 mg.kg^−1): 145,337 d* μg.kg-^1 dry weight | AUC(0-infini) ([4]; feces, oral 34.5 mg.kg^−1): 145,752 d* μg.kg-^1 dry weight | Last detection day ([4]; feces, oral 34.5 mg.kg^−1): 72 days | tmax ([4]; feces, oral 34.5 mg.kg^−1, rough estimate): 170 h | Cmax ([5]; Bravecto tablet oral with food, 125 mg.kg^−1, rough estimate, residues in control animal in same cage): 15 μg.kg-^1 dry weight | AUC (D0-D112) ([5]; oral 125 mg.kg^−1): 105 d* μg.kg-^1 dry weight | Last detection day ([5]; oral 125 mg.kg^−1): 14 days | tmax ([5]; oral 125 mg.kg^−1, rough estimate): 336 h | MRT [6, 25]: 140 h | t1/2 [6, 25]: 120 h | Cmax ([6]; feces, Bravecto tablet oral with food, 28.6 mg.kg^−1, rough estimate): 620 μg.kg-^1 dry weight | AUC (D0-D112) ([6]; feces, oral 28.6 mg.kg^−1): 7,218 d* μg.kg-^1 dry weight | AUC(0-infini) ([6]; feces, oral 28.6 mg.kg^−1): 7,260 d* μg.kg-^1 dry weight | Last detection day ([6]; feces, oral 28.6 mg.kg^−1): 31 days | tmax ([6]; feces, oral 28.6 mg.kg^−1, rough estimate): 24 h | MRT [7, 26]: 384 h | t1/2 [7, 26]: 48 h | Cmax ([7]; feces, Bravecto tablet oral with food, 36.8 mg.kg^−1, rough estimate): 2,137 μg.kg-^1 dry weight | AUC (D0-D112) ([7]; feces, oral 36.8 mg.kg^−1): 41,301 d* μg.kg-^1 dry weight | AUC(0-infini) ([7]; feces, oral 36.8 mg.kg^−1): 41,354 d* μg.kg-^1 dry weight | Last detection day ([7]; feces, oral 36.8 mg.kg^−1): 42 days | tmax ([7]; feces, oral 36.8 mg.kg^−1, rough estimate): 170 h | MRT [8, 27]: 912 h | t1/2 [8, 27]: 624 h | Cmax ([8]; feces, Bravecto tablet oral with food, 52.1 mg.kg^−1, rough estimate): 453 μg.kg-^1 dry weight | AUC (D0-D112) ([8]; feces, oral 52.1 mg.kg^−1): 7,688 d* μg.kg-^1 dry weight | AUC(0-infini) ([8]; feces, oral 52.1 mg.kg^−1): 8,998 d* μg.kg-^1 dry weight | Last detection day ([8]; feces, oral 52.1 mg.kg^−1): 82 days | tmax ([8]; feces, oral 52.1 mg.kg^−1, rough estimate): 24 h | Adverse reaction during the course of the study ([9]; all animals treated, oral Bravecto tablets, allometrically scaled dose): No adverse reaction was noted | Concentrations detected in fecal samples throughout the study ([9]; feces, highest value): up to 44,000 μg/kg | Duration of elimination in feces as an active substance ([9]; our study): up to 3 months | Effect of food on bioavailability ([10]; dogs fed prior to the administration of the drug): doubled | Half-life ([10]; dogs, oral administration): 264 to 312 h | Bioavailability, topical administration ([10]; dogs, topical): 22–25% | Half-life [11]: 118 h | Safety [12]: safe | Dogs displaying alopecia [13]: 4% | Dogs displaying vomiting [13]: 6% | LC50 (Daphnia magna; Daphnia magna, assessment report for EXZOLT): 0.047 mg/L (≈ 0.0845 µM) | No Observed Effect Concentration (NOEC) for reproduction (Daphnia magna; Daphnia magna): 0.047 µg/L | Toxicity classification (Daphnia magna; aquatic invertebrates (Daphnia magna)): highly toxic | Toxicity classification (honey bees): highly toxic | DT50 in soil ([14]; CVMP assessment report): ~1,000 days | DT50 in soil ([14]; VSDB): 60 days | DT50 in aquatic environments ([14]; aerobic waters): 3 to 4 days | DT50 in soil ([14]; sandy loams): up to 989 days | DT50 in sediments ([14]; sediments): 112 to 195 days | Time to cure from sarcoptic mange (sarcoptic mange): 7 days | Efficacy period (dog and cat fleas; dogs and cats): 12 week | Duration of insecticidal effect on dog and cat fleas (dog and cat fleas; reference not given): 12 weeks | Protein-bound [15]: > 99% | Administered dose eliminated unchanged in the feces [16]: 90% | Administered dose eliminated unchanged in the feces ([16]; rats, dogs and chickens): up to 90% | Eliminated via the feces as the unchanged compound ([16]; reference not given): > 90% | Measured values in urine samples [17]: 1 µg/L | Hydrolysis [18]: not degraded by hydrolysis | Lipophilicity [18]: lipophilic
